Reference: US7582675B2, “Flavonoid compound and process for producing the same” (Pokka Corporation, priority 2001, dated 2009)
Entries after “also recorded” stand apart in the source; their conditions may differ.

How the values were obtained:
[1] = radical scavenging ability measurement (DPPH), antioxidative activity in a hydrophilic solvent; assay type: biochemical; conditions: samples 0.1, 1 and 10 μM, 20 minutes at room temperature, FIG. 1
Procedure: The antioxidative activity in a hydrophilic solvent was measured for hesperidin (HE) and the isolated 8-hydroxyhesperetin (8OH-HE). It should be noted that antioxidative activity was measured in accordance with the radical scavenging ability measurement method described in Yamaguchi, et al., Biosci. Biotechnol. Biochem., 62, 1201-1204, 1998. More specifically, an 8OH-HE sample solution and HE sample solution were first prepared having concentrations of 0.1 μM, 1 μM and 10 μM by dissolving 8OH-HE or HE in ethanol. 200 μL of each sample solution was then mixed into 800 μL of 0.1 M Tris-HCl buffer (pH 7.4). 1 ml of 500 μM DPPH (1,1-diphenyl-2-picrylhydrazyl) in ethanol was added to each mixture to prepare reaction solutions. After adequately mixing the reaction solutions, they were allowed to react for 20 minutes in a dark location at room temperature. Next, 20 μL of each reaction solution was injected into an analytical HPLC system (LC-10A) using a microsyringe to analyze the DPPH concentration. The DPPH concentration was calculated from peak area of DPPH. […] Using 200 μL of a solution of ethanol only instead of the sample solutions for the control, the peak area of DPPH was similarly measured for the control by HPLC analysis. The radical scavenging activity (%) of 8OH-HE and HE were then determined according to the calculation formula indicated in Formula 1. […]

[2] = lipid peroxidation of methyl linoleate by HPLC, antioxidative activity in a hydrophobic solvent; assay type: biochemical; conditions: 100 μM sample solutions, 40° C. for 18 hours, FIG. 2, listed as 8OH-HE
Procedure: The antioxidative activity in a hydrophobic solvent was measured for hesperidin (HE), isolated 8-hydroxyhesperetin (8OH-HE) and α-tocopherol (Toc), a compound that is known to have a high level of antioxidative activity. Incidentally, antioxidative activity was measured by HPLC analysis using methyl linoleate as described in Terao J., et al., Lipids, 21(4), 255-260, 1986.
More specifically, an 8OH-HE sample solution, HE sample solution and Toc sample solution having concentrations of 100 μM were first prepared by dissolving 8OH-HE, HE and Toc in ethanol. 89 mg (100 μL) aliquots of methyl linoleate were each weighed into three small test tubes having an inner diameter of 14 mm. 100 μL of each sample solution was added to the three test tubes and mixed well to prepare mixtures.
Next, each of the mixtures was dried by completely removing the solvent by placing each test tube in a vacuum desiccator in which pressure was reduced using a vacuum pump. […] The sum of the HPLC peak areas of 13-hydroperoxide and 9-hydroperoxide formed by the methyl linoleate was then determined.
Moreover, HPLC analysis was also performed using 100 μL of a solution of ethanol only instead of the sample solutions for the control. The sum of the HPLC peak areas of the control was also determined. The degree of lipid peroxidation (%) of each sample was then determined from Formula 2. […]

[3] = antioxidative action (general statement, no test named); conditions: general statement in the description
solubility = assay type: physicochemical

SMILES | antioxidative activity (radical scavenging activity) [1] | antioxidative activity (degree of lipid peroxidation) [2] | antioxidative action [3] | antioxidative action ([3]; listed as 8-Hydroxyhesperetin) | solubility in methanol, ethanol and dimethyl sulfoxide (DMSO) (solubility; methanol, ethanol, DMSO) | solubility in water (solubility; water) | saturation concentration (solubility limit) in the medium (solubility; culture medium, varies with the amount of organic solvent added)
COc1ccc(C2CC(=O)c3c(O)cc(O)c(O)c3O2)cc1O (stereo not shown) [8-hydroxyhesperetin, 3′,5,7,8-tetrahydroxy-4′-methoxyflavonone] | much higher level of antioxidative activity than HE | much higher level of antioxidative activity than HE; also recorded: antioxidative activity that was comparable to α-tocopherol | extremely high level of antioxidative action comparable to that of α-tocopherol | remarkably high antioxidative action as compared with hesperidin and hesperetin | easily dissolves | somewhat soluble | –
COc1ccc([C@@H]2CC(=O)c3c(O)cc(O[C@@H]4O[C@H](CO[C@@H]5O[C@@H](C)[C@H](O)[C@@H](O)[C@H]5O)[C@@H](O)[C@H](O)[C@H]4O)cc3O2)cc1O [hesperidin, reference compound] | – | – | – | – | – | – | ≤ 0.3 % by weight
